# Reference: PubChem BioAssay AID504555 (Johns Hopkins Ion Channel Center, 2011)
# Active and inactive are the calls of the source.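 Rule for the calls: active = dose dependent inhibition of hERG heart potassium channel current within the tested dose range; inactive = the rest.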
# Biological target: Voltage-gated inwardly rectifying potassium channel KCNH2 (Homo sapiens) (UniProt Q12809)
# Test: hERG current block potency – CHO cells, automated electrophysiology, selectivity assay for Kir2.1 inhibitor project, SAR follow-up (AID 504555)
# Conditions: automated patch clamp, tail current
# Sequence of Voltage-gated inwardly rectifying potassium channel KCNH2 (Homo sapiens) (Q12809 whole entry, looked up): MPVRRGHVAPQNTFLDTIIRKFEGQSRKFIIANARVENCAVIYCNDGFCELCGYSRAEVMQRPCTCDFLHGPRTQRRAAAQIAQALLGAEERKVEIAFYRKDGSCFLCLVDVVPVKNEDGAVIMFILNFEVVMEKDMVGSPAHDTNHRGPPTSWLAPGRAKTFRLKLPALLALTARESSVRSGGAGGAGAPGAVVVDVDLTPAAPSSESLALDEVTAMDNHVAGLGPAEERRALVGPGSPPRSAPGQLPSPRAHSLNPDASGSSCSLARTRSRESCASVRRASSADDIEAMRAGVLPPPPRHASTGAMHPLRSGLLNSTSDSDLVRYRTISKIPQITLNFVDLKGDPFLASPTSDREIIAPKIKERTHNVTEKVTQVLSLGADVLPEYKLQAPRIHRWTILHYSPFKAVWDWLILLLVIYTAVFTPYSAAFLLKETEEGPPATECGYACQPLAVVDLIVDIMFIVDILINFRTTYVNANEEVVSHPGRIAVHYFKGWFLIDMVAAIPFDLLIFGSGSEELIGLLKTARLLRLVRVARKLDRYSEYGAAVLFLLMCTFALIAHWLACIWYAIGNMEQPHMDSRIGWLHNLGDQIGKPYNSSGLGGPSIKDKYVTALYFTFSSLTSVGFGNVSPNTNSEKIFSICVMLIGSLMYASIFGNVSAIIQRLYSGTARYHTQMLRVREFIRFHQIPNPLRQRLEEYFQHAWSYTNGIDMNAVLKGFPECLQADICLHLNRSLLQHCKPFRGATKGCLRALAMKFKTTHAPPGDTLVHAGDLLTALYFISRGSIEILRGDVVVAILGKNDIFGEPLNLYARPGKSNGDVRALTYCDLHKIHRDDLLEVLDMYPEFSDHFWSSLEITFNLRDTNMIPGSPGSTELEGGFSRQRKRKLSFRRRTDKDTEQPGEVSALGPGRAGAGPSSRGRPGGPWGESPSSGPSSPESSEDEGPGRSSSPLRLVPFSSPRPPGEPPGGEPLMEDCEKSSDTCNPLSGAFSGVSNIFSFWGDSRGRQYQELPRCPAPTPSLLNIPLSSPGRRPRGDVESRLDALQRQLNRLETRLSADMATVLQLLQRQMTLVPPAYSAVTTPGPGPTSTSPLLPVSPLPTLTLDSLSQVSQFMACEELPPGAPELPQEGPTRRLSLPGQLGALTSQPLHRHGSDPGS
row,Compound,IC50 [µM]
1,Cc1ccc(Nc2cc(C)nc3c(C)cccc23)cc1,2.33
2,C[C@H](NS(=O)(=O)c1cccc(Br)c1)c1ccccc1,10.2
3,CC(O)CNCCCOc1cccc(Oc2ccccc2)c1 (centres undefined),6.96
4,C[C@H](NS(=O)(=O)c1ccc(Br)cc1)c1ccccc1,17.6
5,Cc1ccc(S(=O)(=O)N[C@@H](C)c2ccccc2)cc1,27.6
6,C[C@@H](NS(=O)(=O)c1ccc(Cl)cc1)c1ccccc1,19.5
7,C[C@@H](NS(=O)(=O)c1cccc(Br)c1)c1ccccc1,17.6
8,c1ccc(CNc2c3ccccc3nc3ccccc23)cc1,0.433
9,Cc1noc(C)c1COC(=O)CCN1c2ccccc2Sc2ccccc21,29.1
10,Cc1ccc2nc(N3CCN(CCO)CC3)nc(-c3ccccc3)c2c1,2.9
11,Cc1ccc(C)c(OCCCNCc2ccccc2)c1,19.3
12,c1ccc(COc2ccc(OCCCNC3CCCC3)cc2)cc1,2.19
13,Cc1ccc2nc(NCc3ccccc3)[nH]c2c1,13

# Biological target: Inward rectifier potassium channel 2 (Mus musculus) (UniProt P35561)
# Test: as above
# Conditions: automated patch clamp, tail current, at 30 µM (top of the series)
# Sequence of Inward rectifier potassium channel 2 (Mus musculus) (P35561 whole entry, looked up): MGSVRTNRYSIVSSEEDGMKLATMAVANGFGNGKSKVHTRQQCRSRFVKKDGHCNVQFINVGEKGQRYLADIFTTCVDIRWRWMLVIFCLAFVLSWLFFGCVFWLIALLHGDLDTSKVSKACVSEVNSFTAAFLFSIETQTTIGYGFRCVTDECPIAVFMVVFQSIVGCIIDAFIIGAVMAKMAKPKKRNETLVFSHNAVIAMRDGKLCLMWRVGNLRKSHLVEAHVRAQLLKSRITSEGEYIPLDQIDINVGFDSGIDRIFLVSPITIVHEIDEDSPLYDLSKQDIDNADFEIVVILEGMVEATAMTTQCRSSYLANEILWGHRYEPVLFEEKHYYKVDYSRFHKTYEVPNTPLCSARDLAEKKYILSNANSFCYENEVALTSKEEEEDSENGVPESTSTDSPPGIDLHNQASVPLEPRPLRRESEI
row,Compound,"current change, negative = inhibition"
1,O=S(=O)(c1ccc(F)cc1)N1CCCc2ccccc21,inactive
